Like-named read-outs stand apart in the source and are kept apart here.
What was measured:
HIV-1 [1] = settings: HIV-1, TZM-bl cells, 24 h
[2] = Toxicity in TZM-bl cells, Cell Tox Green (CTxG) assay (CC50); settings: human, mock-infected TZM-bl cells
HIV-1 [3] = test: microbe, parasite or virus in culture; settings: Human immunodeficiency virus 1, TZM-bl, 24 h, read-out: EC50-2 (reporter protein expression)
RVFV-RFP [4] = settings: RPE cells, fluorescent microscopy and CTG assay
FLUAV = test: microbe, parasite or virus in culture; type: cell-based; settings: Influenza A virus, RPE, 24 h, read-out: EC50-1 (CTG assay)
RVFV-RFP [5] = test: microbe, parasite or virus in culture; settings: Rift Valley fever virus, RPE, 24 h, read-out: EC50-2 (reporter protein expression)
FLUAV-GFP [6] = test: microbe, parasite or virus in culture; settings: Influenza A virus, RPE, 24 h, read-out: EC50-2 (reporter protein expression)
FLUAV-GFP [7] = tested on: FLUAV-GFP
HSV-2 [8] = test: microbe, parasite or virus in culture; settings: Human alphaherpesvirus 2, RPE, 72 h, read-out: EC50-1 (CTG assay)
EV1 [9] = test: microbe, parasite or virus in culture; settings: Enterovirus B, RPE, 48 h, read-out: EC50-1 (CTG assay)
EV1 [10] = tested on: EV1
HMPV-GFP [11] = tested on: HMPV-GFP
HMPV-GFP [12] = test: microbe, parasite or virus in culture; settings: human metapneumovirus, RPE, 96 h, read-out: EC50-2 (reporter protein expression)
EV1 [13] = test: EV1 production in RPE cells, plaque assay on A549-Npro cells; type: cell-based, echovirus 1; settings: obatoclax 0.37 μM, emetine 0.12 μM, homoharringtonine 0.12 μM; titrated on A549-Npro cells
HSV-2 [14] = tested on: HSV-2
in vitro = settings: human
HSV-2 [15] = test: HSV-2 production in RPE cells, plaque assay on A549-Npro cells; type: cell-based, herpes simplex virus type 2; settings: 0.12 μM obatoclax, 0.04 μM emetine, 0.37 μM niclosamide, 0.37 μM ganciclovir; titrated on A549-Npro cells
[16] = Drug combination experiment: viability of mock-infected RPE cells (CTG); settings: human
RVFV = test: microbe, parasite or virus in culture; type: cell-based; settings: Rift Valley fever virus, RPE, 24 h, read-out: EC50-1 (CTG assay)
FLUAV-GFP [17] = test: microbe, parasite or virus in culture; settings: Influenza A virus, RPE, read-out: Viability of FLUAV-GFP-infected cells (%)

Cc1c(-c2ccc(-c3ccccc3F)cc2)nc2ccc(F)cc2c1C(=O)O [Brequinar]
SI (CC50/EC50) (HIV-1 [1]): >750
SI (CC50/EC50) (HIV-1 [1]; listed as brequinar): > 750
CC50 at 24 h [2]: > 30000 nM
EC50 (HIV-1 [3]): 40 ± 10 nM

CC[C@H]1CN2CCc3cc(OC)c(OC)cc3[C@@H]2C[C@@H]1C[C@H]1NCCc2cc(OC)c(OC)cc21 [Emetine]
RVFV-mediated RFP expression (RVFV-RFP [4]): inhibited RVFV-mediated RFP expression at non-cytotoxic concentrations
EC50 (FLUAV): 130 ± 50 nM
EC50 (RVFV-RFP [5]): 430 ± 100 nM
EC50 (FLUAV-GFP [6]): 120 ± 30 nM
Initial screening: FLUAV-mediated GFP expression (FLUAV-GFP [7]): lowered GFP expression without detectable cytotoxicity
EC50 (HSV-2 [8]): 30 ± 10 nM
EC50 (EV1 [9]): 120 ± 40 nM
Initial screening: rescue of EV1-infected cells (EV1 [10]): rescued cells from virus-mediated death
Initial screening: HMPV-mediated GFP expression (HMPV-GFP [11]): lowered GFP expression without detectable cytotoxicity
SI (CC50/EC50) (HMPV-GFP [11]): 10
EC50 (HMPV-GFP [12]): 140 ± 50 nM
EV1 production in RPE cells (plaque assay) (EV1 [13]): lowered the production of EV1
Initial screening: rescue of HSV-2-infected cells (HSV-2 [14]): rescued cells from virus-mediated death
SI (CC50/EC50) (HSV-2 [14]): 37
CC50 (in vitro): > 30000 nM
HSV-2 production in RPE cells (plaque assay) (HSV-2 [15]): lowered the production of HSV-2
viability at 24 h, 0.01 μM [16]: 72%
viability at 24 h, 0.02 μM [16]: 80%
viability at 24 h, 0.05 μM [16]: 76%
viability at 24 h, 0.15 μM [16]: 76%
viability at 24 h, 0.44 μM [16]: 80%
EC50 (RVFV): 100 ± 20 nM
viability at 0.01 µM (FLUAV-GFP [17]): 50%
viability at 0.02 µM (FLUAV-GFP [17]): 51%
viability at 0.05 µM (FLUAV-GFP [17]): 66%
viability at 0.15 µM (FLUAV-GFP [17]): 68%
viability at 0.44 µM (FLUAV-GFP [17]): 76%

Nc1nc(O)c2ncn(COC(CO)CO)c2n1 [Ganciclovir]
EC50 (HSV-2 [8]): 40 ± 10 nM
Initial screening: rescue of HSV-2-infected cells (HSV-2 [14]): rescued cells from virus-mediated death
CC50 (in vitro): > 30000 nM
HSV-2 production in RPE cells (plaque assay) (HSV-2 [15]): lowered the production of HSV-2

COC(=O)C[C@](O)(CCCC(C)(C)O)C(=O)O[C@@H]1C(OC)=C[C@]23CCCN2CCc2cc4c(cc2[C@H]13)OCO4 [Homoharringtonine]
EC50 (EV1 [9]): 140 ± 30 nM
Initial screening: rescue of EV1-infected cells (EV1 [10]): rescued cells from virus-mediated death
EV1 production in RPE cells (plaque assay) (EV1 [13]): lowered the production of EV1
CC50 (in vitro): > 30000 nM

O=C(Nc1ccc([N+](=O)[O-])cc1Cl)c1cc(Cl)ccc1O [Niclosamide]
EC50 (HSV-2 [8]): 430 ± 40 nM
Initial screening: rescue of HSV-2-infected cells (HSV-2 [14]): rescued cells from virus-mediated death
SI (CC50/EC50) (HSV-2 [14]): 3
CC50 (in vitro): 1310 ± 20 nM
HSV-2 production in RPE cells (plaque assay) (HSV-2 [15]): lowered the production of HSV-2

COC1=CC(c2cc3ccccc3[nH]2)=N/C1=C\c1[nH]c(C)cc1C [Obatoclax]
RVFV-mediated RFP expression (RVFV-RFP [4]): inhibited RVFV-mediated RFP expression at non-cytotoxic concentrations
EC50 (FLUAV): 40 ± 10 nM
EC50 (RVFV-RFP [5]): 320 ± 90 nM
EC50 (FLUAV-GFP [6]): 100 ± 10 nM
Initial screening: FLUAV-mediated GFP expression (FLUAV-GFP [7]): lowered GFP expression without detectable cytotoxicity
SI (CC50/EC50) (FLUAV-GFP [7]): 31
EC50 (HSV-2 [8]): 100 ± 20 nM
EC50 (EV1 [9]): 120 ± 10 nM
Initial screening: rescue of EV1-infected cells (EV1 [10]): rescued cells from virus-mediated death
SI (CC50/EC50) (EV1 [10]): 25
Initial screening: HMPV-mediated GFP expression (HMPV-GFP [11]): lowered GFP expression without detectable cytotoxicity
EC50 (HMPV-GFP [12]): 120 ± 20 nM
EV1 production in RPE cells (plaque assay) (EV1 [13]): lowered the production of EV1
Initial screening: rescue of HSV-2-infected cells (HSV-2 [14]): rescued cells from virus-mediated death
SI (CC50/EC50) (HSV-2 [14]): 12
HSV-2 production in RPE cells (plaque assay) (HSV-2 [15]): lowered the production of HSV-2
viability at 24 h, 0.01 μM [16]: 81%
viability at 24 h, 0.02 μM [16]: 77%
viability at 24 h, 0.05 μM [16]: 78%
viability at 24 h, 0.15 μM [16]: 81%
viability at 24 h, 0.44 μM [16]: 77%
EC50 (RVFV): 40 ± 10 nM
viability at 0.01 µM (FLUAV-GFP [17]): 60%
viability at 0.02 µM (FLUAV-GFP [17]): 72%
viability at 0.05 µM (FLUAV-GFP [17]): 80%
viability at 0.15 µM (FLUAV-GFP [17]): 90%
viability at 0.44 µM (FLUAV-GFP [17]): 76%

Cc1ccc(C(=O)Nc2ccc(S(=O)(=O)O)c3cc(S(=O)(=O)O)cc(S(=O)(=O)O)c23)cc1NC(=O)c1cccc(NC(=O)Nc2cccc(C(=O)Nc3cc(C(=O)Nc4ccc(S(=O)(=O)O)c5cc(S(=O)(=O)O)cc(S(=O)(=O)O)c45)ccc3C)c2)c1 [Suramin]
SI (CC50/EC50) (HIV-1 [1]): >375
SI (CC50/EC50) (HIV-1 [1]; listed as suramin): > 375
CC50 at 24 h [2]: > 30000 nM
EC50 (HIV-1 [3]): 80 ± 30 nM

Source: PMC6832696 (Viruses, 2019)
